{
  "source": "patent US9029413B2",
  "about": "“Treatment of viral infections by modulation of host cell metabolic pathways” (The Trustees of Princeton University, priority 2007, dated 2015)",
  "key": {"[1]": {"molecular_target": "class III PI(3)K (Homo sapiens, UniProt Q8NEB9)", "sequence (Q8NEB9 whole entry)": "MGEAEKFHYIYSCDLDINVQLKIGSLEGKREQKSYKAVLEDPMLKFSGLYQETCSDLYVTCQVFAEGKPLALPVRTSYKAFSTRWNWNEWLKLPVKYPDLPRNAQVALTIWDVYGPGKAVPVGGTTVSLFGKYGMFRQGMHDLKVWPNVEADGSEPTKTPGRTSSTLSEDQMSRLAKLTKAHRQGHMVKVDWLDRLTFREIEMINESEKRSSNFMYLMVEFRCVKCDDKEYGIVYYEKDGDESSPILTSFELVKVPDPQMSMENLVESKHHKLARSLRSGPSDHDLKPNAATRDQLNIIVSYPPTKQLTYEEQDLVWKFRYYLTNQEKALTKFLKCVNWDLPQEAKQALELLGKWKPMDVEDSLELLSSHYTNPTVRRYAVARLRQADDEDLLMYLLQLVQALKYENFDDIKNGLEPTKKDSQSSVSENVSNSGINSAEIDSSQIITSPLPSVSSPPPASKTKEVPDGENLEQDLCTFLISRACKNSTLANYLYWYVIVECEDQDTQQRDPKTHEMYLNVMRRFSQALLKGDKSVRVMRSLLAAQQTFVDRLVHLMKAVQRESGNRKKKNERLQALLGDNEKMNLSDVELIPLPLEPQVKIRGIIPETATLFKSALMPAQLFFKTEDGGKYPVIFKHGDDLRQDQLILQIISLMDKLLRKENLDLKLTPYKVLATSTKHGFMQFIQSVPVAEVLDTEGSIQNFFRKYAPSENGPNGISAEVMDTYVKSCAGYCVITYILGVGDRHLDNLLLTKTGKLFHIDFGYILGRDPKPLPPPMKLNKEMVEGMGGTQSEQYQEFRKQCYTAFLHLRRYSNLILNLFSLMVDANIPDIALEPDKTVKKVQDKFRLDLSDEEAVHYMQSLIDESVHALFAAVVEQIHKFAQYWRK", "conditions": "cited from earlier work"}, "[2]": {"test_system": "human cytomegalovirus (HCMV)", "format": "cell-based"}, "[3]": {"test_system": "host cells", "experimental": "The toxicity of the diverse ACC inhibitors on host cells was determined by visual inspection of cell lawns and neutral red viability assay."}, "[4]": {"test_system": "hepatitis B virus (HBV) ayw strain", "test": "Extracellular HBV DNA from HepG2-2.2.15 cells, real-time quantitative PCR", "experimental": "In one aspect, Compounds can be added to HepG2-2.2.15 culture to test whether Compound will reduce the production of secreted HBV from cells utilizing real time quantitative PCR (TaqMan) assay to measure HBV DNA copies. Specifically, confluent cultures of HepG2-2.2.15 cells cultured on 96-well flat-bottomed tissue culture plates and are treated with various concentration of daily doses of Compounds. HBV virion DNA in the culture medium can be assessed 24 hours after the last treatment by quantitative blot hybridization or real time quantitative PCR (TaqMan) assay. […] Lamivudine (3TC) can be used as a positive assay control.\nAs noted in section 5.4, HepG2-2.2.15 (Sells et al., PNAS 84, 1005-9, 1987) is a stable cell line containing the HBV ayw strain genome. Compounds blocking any step of viral replication and release can be assayed in these cells (Korba & Milman, Antiviral Res. 15:217-28, 1991). […] The medium with the ACC inhibitor is replaced every 24 hours, and media samples are removed after drug treatment for 24, 48, 72 or 96 hours and assayed for the presence of extracellular viral DNA by real-time quantitative PCR. A reduction in the amount extracellular viral DNA or a delay in its accumulation during the treatment period with the ACC inhibitor is indicative of anti-HBV activity. […] Lamivudine (3TC) is used as a positive assay control for inhibition of the production of extracellular HBV DNA (Korba & Gerin, Antivir. Res. 19:55-70, 1992)."}, "[5]": {"test_system": "host cell", "test": "Host cell toxicity of the TOFA and indomethacin combination (neutral red dye assay)", "conditions": "combined use of TOFA and indomethacin", "experimental": "(§2) A non-limiting example of an assay that can be performed to assess the effect of a combination of an ACC inhibitor plus Cox inhibitor on HCMV replication follows. […] In each assay, various concentrations of TOFA can be combined with various concentrations of indomethacin and assayed for their effect on virus replication. In one preferred embodiment, a physiological concentration of indomethacin is held constant as the dose of TOFA is increased. Control cultures are treated with no drug, indomethacin alone or the various concentrations of TOFA alone. […] The antiviral effect of indomethacin plus each concentration of TOFA is then compared to the activity of indomethacin alone or the various concentrations of TOFA alone."}, "[6]": {"conditions": "cited from earlier work"}, "[7]": {"test_system": "HCMV, influenza A, HIV-1, HBV or HCV", "test": "Viral replication with a combination of ACC inhibitor and HMG-CoA reductase inhibitor", "format": "cell-based", "conditions": "in the presence of a therapeutically effective concentration of the active form of lovastatin"}, "[8]": {"test_system": "HCV replicon", "conditions": "cited from earlier work"}, "[9]": {"test_system": "West Nile virus (WNV)", "test": "Extracellular viral RNA from WNV-infected Vero cells, real-time quantitative RT-PCR", "format": "cell-based", "conditions": "TOFA 20 μg/mL", "protocol": "(§1) WNV and DV, members of the Flavivirus family of positive-strand RNA viruses, cause severe disease in humans. […] A reduction in the amount extracellular viral RNA or a delay in the accumulation of extracellular viral RNA during the drug treatment period will be indicative of anti-WNV or anti-DV activity. […] TOFA at 20 μg/mL results in ˜10-fold reduction, sometime greater, in accumulation of extracellular viral RNA. The accumulation of extracellular viral RNA is also delay compared to untreated cells."}, "[10]": {"test_system": "coxsackie B3 virus", "conditions": "cited from earlier work"}, "[11]": {"test_system": "HCMV", "conditions": "TOFA 10 μg/mL", "experimental": "as §2"}, "[12]": {"test_system": "HCV RNA replicon", "test": "HCV RNA replicon luciferase (LUC) reporter assay in Huh7 ET cells"}, "[13]": {"test_system": "Dengue virus (DV)", "test": "Extracellular viral RNA from DV-infected Vero cells, real-time quantitative RT-PCR", "format": "cell-based", "conditions": "TOFA 20 μg/mL", "protocol": "as §1"}, "[14]": {"test_system": "Huh7 ET cells", "test": "Toxicity in Huh7 ET cultures (neutral red dye uptake)", "conditions": "TOFA 10 μg/mL or 30 μg/mL"}, "[15]": {"test_system": "HCMV-infected fibroblasts (MRC-5 cells)", "test": "Effect on the metabolome of HCMV-infected fibroblasts (LC-MS/MS)", "format": "cell-based, human", "conditions": "TOFA 20 μg/mL for 48 h", "protocol": "Primary fibroblasts (MRC-5 cells) were grown in DMEM (high glucose) containing 7.5% FBS and infected at a multiplicity of 3.0 plaque forming units per cell (control cells were mock infected instead of virally infected). […] Mock-infected cells were then returned to growth medium (+DMSO vehicle) for 48 h. […] Metabolites were extracted into the methanol:water and samples analyzed by LC-MS/MS for a diversity of metabolites as described herein."}, "[16]": {"test_system": "HBV", "conditions": "cited from earlier work"}, "[17]": {"conditions": "dose 30 μg/mL, MOI 3.0, 72 hours post infection, two independent experiments, each with its own controls"}, "[18]": {"conditions": "dose 60 μg/mL, MOI 3.0, 72 hours post infection"}},
  "note": "“Also recorded” adds a separate entry of the source. Where two headings read alike, the source gives them in different places.",
  "data": [
    {"smiles": "Cn1cnc(N)c2ncnc1-2", "note": "[3-methyladenine]", "values": [
      {"measurement": "inhibition of class III PI(3)K", "setting": "[1]", "result": "inhibits class III PI(3)K"},
      {"measurement": "inhibition of HCMV replication (relative infectious units in medium)", "setting": "[2]; 3-methyladenine 5 mM, multiplicity of 0.01 pfu/cell", "result": "has antiviral activities; also recorded: inhibits the replication of human cytomegalovirus"}
    ]},
    {"smiles": "CCOC(=O)C1(CCCCCCOc2ccc(Cl)cc2)CO1", "note": "(stereo not drawn) [Etomoxir]", "values": [
      {"measurement": "reduction of HCMV viral replication", "setting": "[2]; Etomoxir 5 μM, AD169, multiplicity of infection 1.0, harvested 96 hours post infection", "result": "more than 1 log"}
    ]},
    {"smiles": "O=C(c1c2ccccc2cc2ccccc12)N1CCC(N2CCC[C@@H](C(=O)N3CCOCC3)C2)CC1", "note": "[CP-640186]", "values": [
      {"measurement": "toxicity on host cells by neutral red viability assay", "setting": "[3]", "result": "indistinguishable from DMSO control"},
      {"measurement": "inhibition of HCMV replication", "setting": "[2]; as stated in the text for FIGS. 18 and 19, dose not given", "result": "approximately 50 fold"},
      {"measurement": "Fold inhibition of viral replication", "setting": "[2]; [17]", "result": 89.6, "unit": "fold"},
      {"measurement": "Viral yield", "setting": "[2]; [17]", "result": 16000, "unit": "pfu/mL"}
    ]},
    {"smiles": "CCCCCCCCCCCCCCOc1ccc(C(=O)O)o1", "note": "[TOFA, 5-(tetradecyloxy)-2-furoic acid]", "values": [
      {"measurement": "reduction in extracellular HBV DNA", "setting": "[4]; TOFA 3 μg/mL", "result": "small but statistically significant reduction"},
      {"measurement": "reduction in production of extracellular HBV DNA", "setting": "[4]; TOFA 10 μg/mL (range ~3 to ~30-fold)", "result": "~10", "unit": "fold"},
      {"measurement": "impairment of production of extracellular HBV DNA", "setting": "[4]; TOFA 30 μg/mL, greater than 100-fold in some cases", "result": "greater than 10 fold"},
      {"measurement": "host cell toxicity by neutral red dye assay", "setting": "[5]", "result": "does not increase host cell toxicity"},
      {"measurement": "adverse effects", "setting": "[6]; rat, in vivo, 100 mg/kg/day", "result": "no adverse effects are observed"},
      {"measurement": "teratogenicity", "setting": "[6]; rat, in vivo, 150 mg/kg/day", "result": "not teratogenic"},
      {"measurement": "oral LD50", "setting": "[6]; rats, oral", "result": "greater than 5,000 mg/kg"},
      {"measurement": "reduction of the TOFA concentration required to reduce viral growth and/or replication by 10-fold", "setting": "[7]", "result": "≥ 2", "unit": "fold"},
      {"measurement": "inhibition of HCV replication", "setting": "[8]; TOFA 5 microg/ml, Huh-7 cells containing an HCV replicon", "result": "about 3 fold"},
      {"measurement": "reduction in accumulation of extracellular viral RNA (WNV)", "setting": "[9]", "result": "~10", "unit": "fold"},
      {"measurement": "sensitivity of coxsackie B3 virus", "setting": "[10]", "result": "insensitive"},
      {"measurement": "magnitude of the therapeutic effect on HCMV replication", "setting": "[11]; absence of indomethacin", "result": "~10", "unit": "fold"},
      {"measurement": "magnitude of the therapeutic effect on HCMV replication", "setting": "[11]; presence of indomethacin", "result": "~100", "unit": "fold"},
      {"measurement": "decrease in HCMV viral replication", "setting": "[2]", "result": "roughly one"},
      {"measurement": "decrease in HCMV viral replication", "setting": "[2]; TOFA 20 μg/mL, MOI 3.0, GFP reporter virus, released virus only, 72 hours post infection", "result": "roughly two"},
      {"measurement": "Fold inhibition of viral replication", "setting": "[2]; [17]", "result": 427.6, "unit": "fold"},
      {"measurement": "Viral yield", "setting": "[2]; [17]", "result": 7700, "unit": "pfu/mL"},
      {"measurement": "Fold inhibition of viral replication", "setting": "[2]; [18]", "result": 82499.0, "unit": "fold"},
      {"measurement": "Viral yield", "setting": "[2]; [18]", "result": 40, "unit": "pfu/mL"},
      {"measurement": "reduction in LUC activity", "setting": "[12]; TOFA 10 μg/mL", "result": "~10", "unit": "fold"},
      {"measurement": "reduction in LUC activity", "setting": "[12]; TOFA 30 μg/mL, in some experiments", "result": "≥ 100", "unit": "fold"},
      {"measurement": "reduction in accumulation of extracellular viral RNA (DV)", "setting": "[13]", "result": "~10", "unit": "fold"},
      {"measurement": "host cell toxicity by neutral red dye", "setting": "[14]", "result": "absence of host cell toxicity"},
      {"measurement": "NADP+ levels in HCMV-infected cells", "setting": "[15]", "result": "falling with TOFA treatment"},
      {"measurement": "citrate concentration in HCMV-infected cells", "setting": "[15]", "result": "yet greater increases in citrate concentration"},
      {"measurement": "malonyl-CoA concentration in HCMV-infected cells", "setting": "[15]", "result": "below the limit of detection; also recorded: blocked"}
    ]},
    {"smiles": "CC[C@H](C)C(=O)O[C@H]1C[C@@H](C)C=C2C=C[C@H](C)[C@H](CC[C@@H]3C[C@@H](O)CC(=O)O3)[C@H]21", "note": "[Lovastatin, lovastatin]", "values": [
      {"measurement": "production of infectious HBV particles", "setting": "[16]", "result": "does not block production of infectious HBV particles"},
      {"measurement": "secretion of HBV surface antigen, HBsAg", "setting": "[16]", "result": "inhibits secretion of the HBV surface antigen"},
      {"measurement": "inhibition of replication of HCV replicons", "setting": "[8]; Huh-7 cells", "result": "partially inhibit"}
    ]}
  ]
}
